SMILES strings stand for the structures.

In the first assay the target is T1, human DGAT1 (Homo sapiens, UniProt O75907).
T1 sequence (O75907 1-488): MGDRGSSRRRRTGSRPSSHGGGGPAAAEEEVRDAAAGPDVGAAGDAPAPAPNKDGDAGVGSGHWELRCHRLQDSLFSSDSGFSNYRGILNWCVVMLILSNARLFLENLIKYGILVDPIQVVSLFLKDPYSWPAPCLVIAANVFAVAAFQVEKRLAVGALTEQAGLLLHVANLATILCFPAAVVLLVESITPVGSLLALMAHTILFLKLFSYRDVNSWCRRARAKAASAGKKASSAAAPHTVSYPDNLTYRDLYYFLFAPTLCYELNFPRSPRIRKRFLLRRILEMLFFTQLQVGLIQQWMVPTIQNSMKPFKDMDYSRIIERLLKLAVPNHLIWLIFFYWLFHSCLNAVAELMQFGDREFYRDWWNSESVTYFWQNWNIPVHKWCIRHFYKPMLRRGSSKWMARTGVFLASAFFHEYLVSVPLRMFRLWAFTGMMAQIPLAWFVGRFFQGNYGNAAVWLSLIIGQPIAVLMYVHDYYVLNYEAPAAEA
The experiment in a line: DGAT1 CPM Assay. The class given is biochemical. Conditions: human DGAT1, CPM fluorescence, 1 hour incubation at room temperature. On the procedure:
20 uL of 90 uM CPM reagent in 90% ethanol was added after 1 hour incubation at room temperature.
Regarding `C[C@]1(C(=O)O)CC[C@@H](OC2CCN(c3ccc(-c4nc5cc(F)ccc5[nH]4)cn3)CC2)CC1` [Example 111], half-maximal inhibition (IC50) required 0.021 µM.
The same measure, in the same setting: to `COC(=O)c1cccc(OC2CCN(c3ccc(-c4nc5cc(C(F)(F)F)ccc5[nH]4)cn3)CC2)c1` [Example 113, Methyl 3-[(1-{5-[5-(trifluoromethyl)-1H-benzimidazol-2-yl]pyridin-2-yl}piperidin-4-yl)oxy]benzoate] belongs 0.52 µM; to `O=C(O)c1cccc(OC2CCN(c3ccc(-c4nc5cc(C(F)(F)F)ccc5[nH]4)cn3)CC2)c1` [Example 114, 3-[(1-{5-[5-(trifluoromethyl)-1H-benzimidazol-2-yl]pyridin-2-yl}piperidin-4-yl)oxy]benzoic acid], 0.009 µM; to `O=C(O)c1cncc(OC2CCN(c3ccc(-c4nc5cc(C(F)(F)F)ccc5[nH]4)cn3)CC2)c1` [Example 115, 5-[(1-{5-[5-(trifluoromethyl)-1H-benzimidazol-2-yl]pyridin-2-yl}piperidin-4-yl)oxy]pyridine-3-carboxylic acid], 0.028 µM.
The same measure, in the same setting: to `COC(=O)c1cccc(COC2CCN(c3ccc(-c4nc5cc(C(F)(F)F)ccc5[nH]4)cn3)CC2)c1` [Example 116] belongs 0.099 µM; to `O=C(O)c1cccc(COC2CCN(c3ccc(-c4nc5cc(C(F)(F)F)ccc5[nH]4)cn3)CC2)c1` [Example 117], 0.004 µM.
On to `O=C1CN([C@H]2CC[C@H](OC3CCN(c4ccc(-c5nc6cc(C(F)(F)F)ccc6[nH]5)cn4)CC3)CC2)S(=O)(=O)N1` [Example 118], for which it took 0.005 µM to reach half-maximal inhibition (IC50).
Still for that read-out and setting: to `O=C1CN([C@H]2CC[C@H](OC3CCN(c4ccc(-c5nc6cc(F)c(F)cc6[nH]5)cn4)CC3)CC2)S(=O)(=O)N1` [Example 119] belongs 0.004 µM; to `COc1ccc2nc(-c3ccc(N4CCC(O[C@H]5CC[C@H](N6CC(=O)NS6(=O)=O)CC5)CC4)nc3)[nH]c2n1` [Example 120], 0.029 µM.
For `O=C1CN([C@H]2CC[C@@H](OC3CCN(c4ccc(-c5nc6ccccc6[nH]5)cn4)CC3)CC2)S(=O)(=O)N1` [Example 121], the half-maximal inhibitory concentration (IC50) (as a rule, the concentration that gives 50% inhibition) turned out to be 0.045 µM.
On the same count and under the same terms, to `O=C1CN([C@H]2CC[C@@H](OC3CCN(c4ccc(-c5nc6cc(F)c(F)cc6[nH]5)cn4)CC3)CC2)S(=O)(=O)N1` [Example 122] belongs 0.01 µM.
`O=C(O)c1ccc(OC2CCN(c3ccc(-c4nc5ccc(C(F)(F)F)cc5[nH]4)cn3)CC2)nc1` [Example 123]: the 50% inhibitory concentration (IC50) was found to be 0.002 µM.
On to `O[C@@H]1CO[C@H]2[C@@H]1OC[C@@H]2OC1CCN(c2ccc(-c3nc4cc(F)ccc4[nH]3)cn2)CC1` [Example 125], for which the IC50 stood at 0.064 µM.
On the same count and under the same terms, the value for `O=C(O)c1ncc(OC2CCN(c3ccc(-c4nc5cc(Cl)ccc5[nH]4)cn3)CC2)cn1` [Example 127, 5-(1-(5-(5-chloro-1H-benzo[d]imidazol-2-yl)pyridin-2-yl)piperidin-4-yloxy)pyrimidine-2-carboxylic acid] was 0.1 µM; that for `O=C(O)c1cncc(OC2CCN(c3ccc(-c4nc5cc(Cl)ccc5[nH]4)cn3)CC2)c1` [Example 128] was 0.324 µM; that for `O=C(O)Cc1ccc(OC2CCN(c3ccc(-c4nc5cc(Cl)ccc5[nH]4)cn3)CC2)cc1` [Example 129] was 0.001 µM.
In turn, `O=C(O)c1cc(OC2CCN(c3ccc(-c4nc5cc(Cl)ccc5[nH]4)cn3)CC2)no1` [Example 130] yielded a half-maximal inhibitory concentration (IC50) of 0.015 µM.
Same read-out and setting: the value for `O=C(O)c1ccc(OC2CCN(c3ccc(-c4nc5cc(Cl)ccc5[nH]4)cn3)CC2)cc1` [Example 131] was 0.002 µM.
On the same count and under the same terms, the value for `O=C(O)c1cccc(OC2CCN(c3ccc(-c4nc5cc(Cl)ccc5[nH]4)cn3)CC2)c1` [Example 132] was 0.002 µM; that for `O=C(O)[C@H]1[C@@H]2C[C@H](OC3CCN(c4ccc(-c5nc6cc(C(F)(F)F)ccc6[nH]5)cn4)CC3)C[C@@H]21` [Example 133, (1R,3R,5S,6r)-3-[(1-{5-[5-(trifluoromethyl)-1H-benzimidazol-2-yl]pyridin-2-yl}piperidin-4-yl)oxy]bicyclo[3.1.0]hexane-6-carboxylic acid] was 0.002 µM; that for `O=C(O)[C@H]1[C@@H]2C[C@@H](OC3CCN(c4ccc(-c5nc6cc(C(F)(F)F)ccc6[nH]5)cn4)CC3)C[C@@H]21` [Example 134] was 0.004 µM.
Same read-out and setting: the value for `O=C(O)[C@@H]1[C@@H]2C[C@H](OC3CCN(c4ccc(-c5nc6cc(C(F)(F)F)ccc6[nH]5)cn4)CC3)C[C@@H]21` [Example 135] was 0.011 µM; that for `O=C(O)[C@@H]1[C@@H]2C[C@@H](OC3CCN(c4ccc(-c5nc6cc(C(F)(F)F)ccc6[nH]5)cn4)CC3)C[C@@H]21` [Example 136] was 0.006 µM.
For `O=C(O)C[C@H]1CC[C@H](O[C@H]2CCN(c3ccc(-c4nc5cc(F)ccc5[nH]4)cn3)C2)CC1` [Example 138], half-maximal inhibition (IC50) required 0.045 µM. This IC50 is about 7.5-fold higher than that of the compound before.

In another assay the target is T2, human DGAT1 enzyme expressed in Sf9 insect cells prepared as microsomes (Homo sapiens, UniProt O75907).
T2 construct: made in house; host or cells: Sf9 insect cells (microsomes)
T2 sequence (O75907 1-488): T1 sequence (O75907 1-488)
The experiment in a line: in vitro assay to identify DGAT1 inhibitors ([14C]-palmitoyl-CoA, wheat germ agglutinin beads, TopCount). The class given is biochemical. As to conditions: 2 hours at room temperature. On the procedure: If compounds 141-162 were assayed they were assayed as follows: the in vitro assay to identify DGAT1 inhibitors uses human DGAT1 enzyme expressed in Sf9 insect cells prepared as microsomes. The reaction is initiated by the addition of the combined substrates 1,2-dioleoyl-sn-glycerol and [^14C]-palmitoyl-Co A and incubated with test compounds and microsomal membranes for 2 hours at room temperature. The assay is stopped by adding 0.5 mg wheat germ agglutinin beads in assay buffer with 1% Brij-35 and 1% 3-cholamidopropyldimethyl-ammonio-1-propane sulfonate. Plates are sealed with TopSeal and incubated for 18 hours to allow the radioactive triglyceride product to come into proximity with the bead. Plates are read on a TopCount instrument.
Percent inhibition was calculated as the percent of (test compound inhibition minus non-specific binding) relative to (total binding minus non-specific binding). IC50 values were determined by curve fitting the data to a Sigmoidal dose-response in GraphPad Prism utilizing the following equation:
Y=A+(B−A)/(1+10̂((Log IC50−X))),
where A and B are the bottom and top of the curve (highest and lowest inhibition), respectively, and X is the logarithm of concentration.
Consider `COC(=O)c1cccc(OCC2CCN(c3ccc(-c4nc5cc(C(F)(F)F)ccc5[nH]4)cn3)CC2)c1` [Example 141, methyl 3-[[1-[5-[5-(trifluoromethyl)-1H-benzol[d]imidazol-2-yl]pyridine-2-yl]piperidin-4-yl]methoxy]benzoate], for which half-maximal inhibition (IC50) was put at 2.5 µM.
The same measure, in the same setting: the value for `O=C(O)c1cccc(OCC2CCN(c3ccc(-c4nc5cc(C(F)(F)F)ccc5[nH]4)cn3)CC2)c1` [Example 142, 3-[[1-[5-[5-(trifluoromethyl)-1H-benzol[d]imidazol-2-yl]pyridine-2-yl]piperidin-4-yl]methoxy]benzoic acid] was 0.013 µM; that for `COC(=O)c1cccc(OCC2CCN(c3ccc(-c4nc5cc(Cl)ccc5[nH]4)cn3)CC2)c1` [Example 143] was 1.83 µM; that for `O=C(O)c1cccc(OCC2CCN(c3ccc(-c4nc5cc(Cl)ccc5[nH]4)cn3)CC2)c1` [Example 144] was 0.008 µM.
Compound `O=C(O)c1cc(OCC2CCN(c3ccc(-c4nc5cc(Cl)ccc5[nH]4)cn3)CC2)cc(C(=O)O)c1` [Example 146, 5-((1-(5-(5-chloro-1H-benzo[d]imidazol-2-yl)pyridin-2-yl)piperidin-4-yl)methoxy)isophthalic acid] came in with a half-maximal inhibitory concentration (IC50) of 0.018 µM.
In turn, `O=C(O)c1cc(F)ccc1OCC1CCN(c2ccc(-c3nc4cc(Cl)ccc4[nH]3)cn2)CC1` [Example 148, 2-[[1-[5-(6-chloro-1H-benzimidazol-2-yl)-2-pyridinyl]-4-piperidinyl]methoxy]-5-fluorobenzoic acid] came in with an IC50 of 1.07 µM.
On the same count and under the same terms, the value for `O=C(O)c1ccc(OCC2CCN(c3ccc(-c4nc5cc(Cl)ccc5[nH]4)cn3)CC2)cc1` [Example 150, 4-[[1-[5-(6-Chloro-1H-benzimidazol-2-yl)-2-pyridinyl]-4-piperidinyl]methoxy]benzoic acid] was 0.067 µM; that for `COC(=O)c1ccccc1OCC1CCN(c2ccc(-c3nc4cc(C(F)(F)F)ccc4[nH]3)cn2)CC1` [Example 151] was 2.7 µM.
`O=C(O)c1ccccc1OCC1CCN(c2ccc(-c3nc4cc(C(F)(F)F)ccc4[nH]3)cn2)CC1` [Example 152]: the concentration for half-maximal inhibition (IC50) was determined as 0.014 µM.
On to `O=C(O)c1ccccc1OCC1CCN(c2ccc(-c3nc4cc(Cl)ccc4[nH]3)cn2)CC1` [Example 153], for which half-maximal inhibition (IC50) was put at 0.085 µM.
Same read-out and setting: to `O=C(O)c1ccc(F)cc1OCC1CCN(c2ccc(-c3nc4cc(Cl)ccc4[nH]3)cn2)CC1` [Example 154] belongs 0.058 µM; to `O=C(O)c1ccc(F)cc1OCC1CCN(c2ccc(-c3nc4cc(C(F)(F)F)ccc4[nH]3)cn2)CC1` [Example 155], 0.031 µM.
The same measure, in the same setting: to `Cc1ccc(C(=O)O)cc1OCC1CCN(c2ccc(-c3nc4cc(Cl)ccc4[nH]3)cn2)CC1` [Example 156] belongs 0.012 µM; to `Cc1ccc(C(=O)O)cc1OCC1CCN(c2ccc(-c3nc4cc(C(F)(F)F)ccc4[nH]3)cn2)CC1` [Example 157], 0.015 µM; to `CC(C)(COCC1CCN(c2ccc(-c3nc4cc(Cl)ccc4[nH]3)cn2)CC1)C(=O)O` [Example 159], 0.108 µM.
`CC(C)(COCC1CCN(c2ccc(-c3nc4cc(C(F)(F)F)ccc4[nH]3)cn2)CC1)C(=O)O` [Example 160] yielded a 50% inhibitory concentration (IC50) of 0.084 µM.
`O=C(O)C1(COCC2CCN(c3ccc(-c4nc5cc(Cl)ccc5[nH]4)cn3)CC2)CCC1` [Example 161] displayed a 50% inhibitory concentration (IC50) of 0.095 µM.
Compound `O=C(O)C1(COCC2CCN(c3ccc(-c4nc5cc(C(F)(F)F)ccc5[nH]4)cn3)CC2)CCC1` [Example 162] returned an IC50 of 0.062 µM.

For the origin of these results see patent US20140088124A1, “IMIDAZOLE DERIVATIVES” (priority 2011, published 2014).
